Source: patent US11331299B2, “Medicinal use of serrulatane diterpenes” (The University of Sydney, priority 2016, dated 2022)
Read-outs that look alike come from different tables or passages of the source.

Columns and labels:
[1] = system: H3K4 me2; assay: Cell-based detection methyl modifications; conditions: read-out: % Inhibition of Control Values
[2] = biological target: T1, JMJD2A (h) (Homo sapiens, UniProt O75164); assay: Epigenetic enzyme assay, Demethylases (KDMs); format: biochemical; conditions: read-out: % Inhibition of Control Values
T1 sequence (O75164 1-1064): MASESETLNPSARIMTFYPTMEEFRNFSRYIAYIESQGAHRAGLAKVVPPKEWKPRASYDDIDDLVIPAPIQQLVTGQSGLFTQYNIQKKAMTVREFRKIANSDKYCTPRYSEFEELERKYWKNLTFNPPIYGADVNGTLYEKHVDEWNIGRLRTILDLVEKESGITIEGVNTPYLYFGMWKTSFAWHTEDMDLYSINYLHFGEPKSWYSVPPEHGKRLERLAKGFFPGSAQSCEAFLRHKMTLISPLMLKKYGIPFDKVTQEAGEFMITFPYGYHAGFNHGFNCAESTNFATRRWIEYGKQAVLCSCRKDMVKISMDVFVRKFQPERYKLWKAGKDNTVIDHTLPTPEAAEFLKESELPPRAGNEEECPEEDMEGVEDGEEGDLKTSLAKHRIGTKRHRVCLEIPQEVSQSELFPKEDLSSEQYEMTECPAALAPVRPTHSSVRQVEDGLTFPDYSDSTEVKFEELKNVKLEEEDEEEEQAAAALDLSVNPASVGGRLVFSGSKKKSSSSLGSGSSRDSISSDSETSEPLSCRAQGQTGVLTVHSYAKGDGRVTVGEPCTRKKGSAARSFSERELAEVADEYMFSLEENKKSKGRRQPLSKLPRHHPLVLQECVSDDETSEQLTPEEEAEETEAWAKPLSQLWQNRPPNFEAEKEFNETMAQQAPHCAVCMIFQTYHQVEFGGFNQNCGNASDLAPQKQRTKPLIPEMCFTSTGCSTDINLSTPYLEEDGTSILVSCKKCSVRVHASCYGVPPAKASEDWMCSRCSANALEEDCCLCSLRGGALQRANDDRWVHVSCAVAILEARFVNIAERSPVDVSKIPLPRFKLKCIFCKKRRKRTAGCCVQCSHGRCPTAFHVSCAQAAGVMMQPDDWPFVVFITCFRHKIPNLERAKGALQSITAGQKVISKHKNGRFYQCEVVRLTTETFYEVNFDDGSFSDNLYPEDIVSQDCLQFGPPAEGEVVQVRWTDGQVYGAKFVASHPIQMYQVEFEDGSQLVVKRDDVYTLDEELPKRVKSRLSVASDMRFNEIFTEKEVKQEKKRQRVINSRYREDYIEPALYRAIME

[3] = biological target: T2, Deacetylase, Histone 1 (Homo sapiens, UniProt Q13547); assay: Deacetylase, Histone 1 (PanLab); format: biochemical
T2 construct: host or cells: Insect Sf9 cells
T2 sequence (Q13547 whole entry): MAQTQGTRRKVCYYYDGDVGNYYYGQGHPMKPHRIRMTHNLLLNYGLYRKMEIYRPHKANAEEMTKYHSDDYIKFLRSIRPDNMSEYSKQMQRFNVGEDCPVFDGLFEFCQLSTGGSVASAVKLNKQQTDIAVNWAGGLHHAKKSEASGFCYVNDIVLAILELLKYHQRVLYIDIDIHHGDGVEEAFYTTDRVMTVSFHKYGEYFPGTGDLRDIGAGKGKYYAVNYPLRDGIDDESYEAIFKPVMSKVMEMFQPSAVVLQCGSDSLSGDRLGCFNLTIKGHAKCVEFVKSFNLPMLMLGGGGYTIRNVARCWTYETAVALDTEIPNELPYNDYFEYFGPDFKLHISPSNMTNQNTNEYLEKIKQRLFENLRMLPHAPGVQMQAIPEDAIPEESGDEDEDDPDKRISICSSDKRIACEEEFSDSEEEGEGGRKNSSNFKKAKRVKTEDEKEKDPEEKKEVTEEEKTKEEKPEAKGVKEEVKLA
Protocol: (§1) The in vitro pharmacological studies were conducted by Eurofins PanLab (Taiwan) using the parameters shown in Table 13 with respect to appropriate literature references.

[4] = system: 43 cancer cell lines and one normal cell line; assay: In vitro cell viability assay (intracellular ATP, 72 hour); format: cell-based; conditions: 10 μM
[5] = biological target: T3, CBX8 (h) chromodomain (Homo sapiens, UniProt Q9HC52); assay: Epigenetic binding assay, Chromodomain; conditions: read-out: % Inhibition of Control Specific Binding
T3 construct: Recognition and specificity determinants of the human cbx chromodomains; Eurofins CEREP (France), contract laboratory
T3 sequence (Q9HC52 11-69 limits assumed): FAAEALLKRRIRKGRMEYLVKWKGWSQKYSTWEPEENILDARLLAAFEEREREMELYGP

[6] = biological target: Histamine N-methyltransferase (h) (Homo sapiens, UniProt P50135); assay: Epigenetic enzyme assay, Small molecule methyltransferases; format: biochemical; conditions: read-out: % Inhibition of Control Values
Histamine N-methyltransferase (h), sequence (P50135 whole entry): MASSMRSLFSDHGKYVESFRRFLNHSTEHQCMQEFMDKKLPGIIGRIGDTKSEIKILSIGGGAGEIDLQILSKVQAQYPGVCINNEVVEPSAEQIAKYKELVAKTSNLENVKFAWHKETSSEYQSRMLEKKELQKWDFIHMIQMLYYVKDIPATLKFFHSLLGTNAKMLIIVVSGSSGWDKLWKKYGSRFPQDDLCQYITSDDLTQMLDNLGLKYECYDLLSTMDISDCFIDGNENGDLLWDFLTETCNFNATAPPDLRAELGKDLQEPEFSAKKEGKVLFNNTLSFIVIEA

[7] = biological target: TIP60(h) (Homo sapiens, UniProt Q92993); assay: Epigenetic enzyme assay, Histone acetyltransferases (HATs); format: biochemical; conditions: read-out: % Inhibition of Control Values
TIP60(h), sequence (Q92993 whole entry): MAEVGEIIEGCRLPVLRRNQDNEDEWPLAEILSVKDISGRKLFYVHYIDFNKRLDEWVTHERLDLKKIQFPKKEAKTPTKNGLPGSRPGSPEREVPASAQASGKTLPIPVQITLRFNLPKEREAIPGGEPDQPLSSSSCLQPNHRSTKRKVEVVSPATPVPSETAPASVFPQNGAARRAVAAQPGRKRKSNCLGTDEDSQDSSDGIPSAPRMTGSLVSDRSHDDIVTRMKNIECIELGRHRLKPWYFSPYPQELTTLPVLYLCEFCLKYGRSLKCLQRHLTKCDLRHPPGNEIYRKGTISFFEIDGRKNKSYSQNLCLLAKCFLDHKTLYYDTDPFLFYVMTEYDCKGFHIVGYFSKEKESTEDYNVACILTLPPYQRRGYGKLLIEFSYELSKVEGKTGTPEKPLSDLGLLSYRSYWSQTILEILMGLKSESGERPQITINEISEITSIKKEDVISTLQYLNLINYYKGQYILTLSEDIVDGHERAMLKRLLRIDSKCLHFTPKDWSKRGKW

[8] = biological target: T4, Histamine H4 (Homo sapiens, UniProt Q9H3N8); assay: Histamine H4 radio ligand binding
T4 construct: expressed in transfected cells; host or cells: Chem-1 cells
T4 sequence (Q9H3N8 whole entry): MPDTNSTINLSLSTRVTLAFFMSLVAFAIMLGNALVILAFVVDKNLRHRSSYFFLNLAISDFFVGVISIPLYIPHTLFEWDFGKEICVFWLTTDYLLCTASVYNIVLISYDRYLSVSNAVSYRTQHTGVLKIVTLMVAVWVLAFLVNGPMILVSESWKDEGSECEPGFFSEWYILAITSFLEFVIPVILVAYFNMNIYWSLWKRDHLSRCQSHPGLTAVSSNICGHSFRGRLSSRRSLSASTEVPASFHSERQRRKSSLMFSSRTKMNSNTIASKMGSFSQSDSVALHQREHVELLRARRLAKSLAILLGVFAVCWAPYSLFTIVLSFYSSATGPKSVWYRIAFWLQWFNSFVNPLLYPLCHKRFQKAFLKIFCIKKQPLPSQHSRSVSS
Protocol: as §1

[9] = biological target: T5, PHIP(2) (h) bromodomain (Homo sapiens, UniProt Q8WWQ0); assay: Epigenetic binding assay, Bromodomain; conditions: 10 μM
T5 construct: Bromodomain

Work on `CC(C)=CCC[C@H](CO)[C@@H]1CC[C@@H](C)c2c1cc(C)c(O)c2O` [Compound 1, 7,8,18-trihydroxyserrulat-14-ene] yielded an inhibition at 10 µM [1] of -5%, an inhibition at 10 µM [2] of 29% and a % control response at 10 µM ([3]; assay year 2014) of 17%. For the same molecule, the % control response at 10 µM ([3]; assay year 2015) was -27%, the “reduction in cell viability” value ([4]; 12 cancer cell lines with moderate reduction) was −40 to −80% and the “reduction in cell viability” value ([4]; cancer cell lines with potent reduction) was −80 to −100%. For the same molecule, the “% Cell growth” value ([4]; 4T1 (Breast Cancer)) was 52%, the “% Cell growth” value ([4]; A375 (Skin)) was −5% and the “% Cell growth” value ([4]; A549/ATCC (Non-Small Cell Lung Cancer)) was −92%. For the same molecule, the “% Cell growth” value ([4]; A-431 (Skin)) was −89%, the “% Cell growth” value ([4]; A-498 (Kidney Cancer)) was −43% and the “% Cell growth” value ([4]; ACHN (Kidney Cancer)) was −41%. The “% Cell growth” value ([4]; B16-F0 (Melanoma)) was 7%, the “% Cell growth” value ([4]; BT474 (Breast Cancer)) was −67% and the “% Cell growth” value ([4]; CT26.WT (Colon Cancer)) was 2%. The “% Cell growth” value ([4]; DLD-1 (Colon Cancer)) was −65%, the “% Cell growth” value ([4]; H33HJ-JA1 (Lymphoma)) was −90% and the “% Cell growth” value ([4]; HC-4 (Liver Cancer)) was −91%. For the same molecule, the “% Cell growth” value ([4]; HCT-15 (Colon Cancer)) was −62%, the “% Cell growth” value ([4]; HCT-116 (Colon Cancer)) was −74% and the “% Cell growth” value ([4]; HT-29 (Colon Cancer)) was −66%. For the same molecule, the “% Cell growth” value ([4]; Hep3B (Liver Cancer)) was −84%, the “% Cell growth” value ([4]; HepG2 (Liver Cancer)) was −23% and the “% Cell growth” value ([4]; K-562 (Leukemia)) was −55%. For the same molecule, the “% Cell growth” value ([4]; KATO III (Stomach)) was −91%, the “% Cell growth” value ([4]; LL/2 (Non-Small Cell Lung Cancer)) was −62% and the “% Cell growth” value ([4]; LNCaP (Prostrate Cancer)) was −86%. For the same molecule, the “% Cell growth” value ([4]; MCF7 (Breast Cancer)) was −71%, the “% Cell growth” value ([4]; MCF-7 AdrR (Breast Cancer)) was −90% and the “% Cell growth” value ([4]; MDA-MB-231 (Breast Cancer)) was −92%. For the same molecule, the “% Cell growth” value ([4]; MDA-MB-468 (Breast Cancer)) was −92%, the “% Cell growth” value ([4]; MES-SA (Uterus)) was −88% and the “% Cell growth” value ([4]; MIA PaCa-2 (Pancreas)) was 3%. The “% Cell growth” value ([4]; MOLT-4 (Leukemia)) was −94%, the “% Cell growth” value ([4]; MV-411 (Leukemia)) was −96% and the “% Cell growth” value ([4]; NCI-H460 (Non-Small Cell Lung Cancer)) was −37%. The “% Cell growth” value ([4]; OVCAR-3 (Ovarian Cancer)) was −93%, the “% Cell growth” value ([4]; PANC-1 (Pancreas)) was 36% and the “% Cell growth” value ([4]; PC-3 (Prostrate Cancer)) was 70%. The “% Cell growth” value ([4]; PC-6 (Non-Small Cell Lung Cancer)) was −62%, the “% Cell growth” value ([4]; Ramos (Lymphoma)) was −92% and the “% Cell growth” value ([4]; SK-MEL-5 (Melanoma)) was −96%. The “% Cell growth” value ([4]; SK-N-MC (Brain)) was −87%, the “% Cell growth” value ([4]; SK-OV-3 (Ovarian Cancer)) was −35% and the “% Cell growth” value ([4]; SW-620 (Colon Cancer)) was −89%. For the same molecule, the “% Cell growth” value ([4]; T-47D (Breast Cancer)) was 20%, the “% Cell growth” value ([4]; U937 (Lymphoma)) was −86% and the “% Cell growth” value ([4]; U-87 MG (Brain)) was 7%. The inhibition at 10 µM [5] was 27%, the inhibition at 10 µM [6] was 18% and the inhibition at 10 µM [7] was 20%. For the same molecule, the remaining activity at 10 µM ([8]; assay year 2014, read-out: % Control Response) was 50%, the remaining activity at 10 µM ([8]; assay year 2015, read-out: % Control Response) was 12% and the “% Inhibition of Control Specific Binding” value [9] was “significant inhibitory activity”. It also gave an inhibition at 10 µM ([9]; read-out: % Inhibition of Control Specific Binding) of 61%.
